According to patent US8362010B2, “Benzenesulfonanilide compounds suitable for treating disorders that respond to modulation of the serotonin 5-HT6 receptor” (Abbott GmbH & Co. KG, priority 2009, dated 2013):
Structures can show the parent of a compound that is named as a salt.

Biological target: T1, h-5-HT6 receptor (Homo sapiens, UniProt P50406)
T1 construct: expressed in transfected cells; host or cells: HEK293
Assay: 5-HT6 receptor binding assay (displacement of [3H]-LSD)
Conditions: membranes of HEK293 cells expressing h-5-HT6; 1 nM [3H]-LSD
Description: Displacement of radioligands binding to the following cloned human receptors
Cells from stable clonal cell lines expressing the corresponding receptor (5-HT6, α1-adrenergic, dopamine D2 or histamine H1 receptors) were washed with PBS (w/o Ca^++, Mg^++) and harvested in PBS with 0.02% EDTA. […] The pellets were stored at −80° C. until use. For membrane preparation, the thawed cell pellet was resuspended in ice-cold sucrose buffer (0.25 M sucrose, 10 mM Hepes (pH 7.4), 1 mM Phenylmethylsulfonyl fluoride (PMSF) in DMSO, 5 μg/ml Pepstatin-A, 3 mM EDTA, 0.025% Bacitracin) and homogenized with a Branson Sonifier W-250 (Settings: Timer 4; Output Control 3; Duty Cycle constant; 2 to 3 cycles). Cell disruption was checked with the aid of a microscope. […] The sucrose buffer supernatant was then centrifuged at 60.000 g for 1 h at 4° C. (Beckman Ultrazentrifuge XL 80). The pellet was resuspended in 30 ml ice-cold Tris buffer (20 mM TRIS (pH 7.4), 5 μg/ml Pepstatin A, 0.1 mM PMSF, 3 mM EDTA) by pipetting through a 10 ml serological pipet and centrifuged for 1 h at 4° C. at 60.000 g. A final resuspension was performed in a small volume of ice-cold Tris buffer (see above) by pressing through a serological pipet followed by ultrasonic treatment with a Branson Sonifier W-250 (Settings: Timer 1; Output Control 3; Duty Cycle constant; 1 cycle). Protein concentration was determined (BCA-Kit; Pierce) and aliquots stored at −80° C. or in liquid nitrogen for long-term storage.
All receptor binding experiments were carried out in the corresponding assay buffer in a total volume of 200 μl in the presence of various concentrations of test compound (10^−5 M to 10^−9 M, tenfold serial dilution, duplicate determinations). The assays were terminated by filtration on polyethylenimine (PEI 0.1% or 0.3%) presoaked Packard Unifilter Plates (GF/C or GF/B) with a Tomtec MachIII U 96 well-plate harvester. After the plates had been dried for 2 h at 55° C. in a drying chamber scintillation cocktail (BetaPlate Scint; PerkinElmer) was added. Radioactivity was measured in a Microbeta Trilux two hours after the addition of the scintillation mixture. Data derived from liquid scintillation counting were analysed by iterative non-linear regression analysis with the use of the Statistical Analysis System (SAS): a program similar to “LIGAND” as described by Munson and Rodbard (Analytical Biochemistry 107, 220-239 (1980). […]
Data derived from liquid scintillation counting were analyzed by iterative non-linear regression analysis with the use of the Statistical Analysis System (SAS): a program similar to “LIGAND” as described by Munson and Rodbard (Anal. Biochem. 1980, 107, 220-239). […] IC50, nH and Ki values were expressed as geometrical mean.

T1 sequence (P50406 whole entry): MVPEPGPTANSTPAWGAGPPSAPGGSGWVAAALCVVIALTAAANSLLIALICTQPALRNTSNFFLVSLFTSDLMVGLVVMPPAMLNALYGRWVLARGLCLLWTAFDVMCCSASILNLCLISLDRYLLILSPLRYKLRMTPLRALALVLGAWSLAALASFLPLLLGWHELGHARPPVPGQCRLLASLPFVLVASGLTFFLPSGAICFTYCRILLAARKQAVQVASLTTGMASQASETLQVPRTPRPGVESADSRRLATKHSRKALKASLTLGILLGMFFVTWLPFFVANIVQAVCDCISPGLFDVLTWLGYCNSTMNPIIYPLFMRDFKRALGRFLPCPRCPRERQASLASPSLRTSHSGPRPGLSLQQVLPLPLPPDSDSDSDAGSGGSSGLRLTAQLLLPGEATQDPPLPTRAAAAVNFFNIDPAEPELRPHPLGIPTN

Ki | SMILES
< 10 nM | COc1ccc(NS(=O)(=O)c2cccc(OC(F)F)c2)cc1N1CCCNCC1 [Example 1, N-(3-[1,4]Diazepan-1-yl-4-methoxy-phenyl)-3-difluoromethoxy-benzenesulfonamide hydrochloride]
< 10 nM | COc1ccc(NS(=O)(=O)c2ccccc2OC(F)F)cc1N1CCCNCC1 [Example 3, N-(3-[1,4]Diazepan-1-yl-4-methoxy-phenyl)-2-difluoromethoxy-benzenesulfonamide hydrochloride]
< 50 nM | Cc1ccc(NS(=O)(=O)c2cccc(OC(F)F)c2)cc1N1CCCNCC1 [Example 7, N-(3-[1,4]Diazepan-1-yl-4-methyl-phenyl)-3-difluoromethoxy-benzenesulfonamide hydrochloride]
< 10 nM | Cc1ccc(NS(=O)(=O)c2ccccc2OC(F)F)cc1N1CCCN(C)CC1 [Example 8, 2-Difluoromethoxy-N-[4-methyl-3-(4-methyl-[1,4]diazepan-1-yl)-phenyl]-benzenesulfonamide hydrochloride]
